The values that follow come from patent US10508104B2, “6-hydroxy-5-(phenyl/heteroarylsulfonyl)pyrimidin-4(1H)-one as APJ agonists” (Bristol-Myers Squibb Company, priority 2016, dated 2019).

The test has as its target human APJ receptor (Homo sapiens (Human), UniProt P35414). In words: Intracellular cAMP accumulation assay (APJ hcAMP, HTRF). The class given is cell-based. The conditions noted are these: human APJ, intracellular cAMP accumulation; read-out: Human APJ cAMP EC50 Potency range. On the procedure:
Intracellular cAMP Accumulation Assay
HEK293 cells stably expressing human APJ receptor were used to assess the activity of compounds. Cultured cells were detached and resuspended in the cAMP Homogeneous Time-Resolved Fluorescence (HTRF) assay buffer (Cisbio cat; #62AM4PEJ). The assay was performed in 384-well assay plates (Perkin-Elmer; cat #6008289) according to assay protocol provided by the manufacturer. Serial dilutions of a compound together with assay buffer containing […] and 2 μM forskolin were added to each well containing 5,000 cells and incubated for 30 minutes at room temperature. Subsequently, cAMP D2 reagent was added in the lysis buffer followed by the EuK antibody (Cisbio; cat #62AM4PEJ) and incubated for 60 min. The fluorescence emission ratio was measured using fluorometer. The intracellular cAMP concentrations (compound-stimulated inhibition of forskolin-mediated cAMP production) were calculated by extrapolation from a standard curve using known cAMP concentrations. The EC50 values were obtained by fitting the data to a sigmoidal concentration-response curve with variable slope.
The EC50 value of each compound is presented at the end of the example description.
The biological activity of the exemplified compounds of this invention determined by the assay described above is shown at the end of each example.
On the technique in general: cAMP levels reflect the balance of adenylyl cyclase and phosphodiesterase activity.

Molecules are shown by their SMILES. pEC50: −log10 of the molar value.

human APJ receptor, sequence (P35414 whole entry): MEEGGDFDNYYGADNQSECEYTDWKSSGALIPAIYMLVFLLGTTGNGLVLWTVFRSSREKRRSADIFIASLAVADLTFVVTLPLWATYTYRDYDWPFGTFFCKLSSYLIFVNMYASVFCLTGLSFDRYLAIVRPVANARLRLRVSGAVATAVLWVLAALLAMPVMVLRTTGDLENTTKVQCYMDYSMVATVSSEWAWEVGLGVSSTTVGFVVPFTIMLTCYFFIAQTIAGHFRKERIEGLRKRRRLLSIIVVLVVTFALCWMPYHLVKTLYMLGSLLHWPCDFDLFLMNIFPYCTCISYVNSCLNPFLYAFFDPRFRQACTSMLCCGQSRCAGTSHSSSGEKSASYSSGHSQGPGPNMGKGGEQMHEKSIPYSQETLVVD

The pEC50 is −log10 of the EC50, conventionally taken in molar units. In the case of `CCCCc1nc(=O)c(S(=O)(=O)c2ccc(-c3ccc(F)cc3C)cc2)c(O)n1-c1c(OC)cccc1OC` [Example 26, 2-butyl-1-(2,6-dimethoxyphenyl)-5-[4-(4-fluoro-2-methylphenyl)benzenesulfonyl]-6-hydroxy-1,4-dihydropyrimidin-4-one], the pEC50 is 8.00 to 11.00.

Regarding `CCCCc1nc(=O)c(S(=O)(=O)c2ccc(-c3ccnc(C)c3)cc2)c(O)n1-c1c(OC)cccc1OC` [Example 27, 2-butyl-1-(2,6-dimethoxyphenyl)-6-hydroxy-5-[4-(2-methylpyridin-4-yl)benzenesulfonyl]-1,4-dihydropyrimidin-4-one], the pEC50 is 8.00 to 11.00.

Take `CCCCc1nc(=O)c(S(=O)(=O)c2ccc(-c3ccc(N4CCOCC4)nc3)cc2)c(O)n1-c1c(OC)cccc1OC` [Example 28, 2-butyl-1-(2,6-dimethoxyphenyl)-6-hydroxy-5-{4-[6-(morpholin-4-yl)pyridin-3-yl]benzenesulfonyl}-1,4-dihydropyrimidin-4-one]: the negative-log EC50 (pEC50) is 8.00 to 11.00.

As for `CCCCc1nc(=O)c(S(=O)(=O)c2ccc(-c3ccccc3OC3CC3)cc2)c(O)n1-c1c(OC)cccc1OC` [Example 29], the pEC50 was 8.00 to 11.00.

For the compound `CCCCc1nc(=O)c(S(=O)(=O)c2ccc(-c3cccnc3OC)cc2)c(O)n1-c1c(OC)cccc1OC` [Example 30, 2-butyl-1-(2,6-dimethoxyphenyl)-6-hydroxy-5-[4-(2-methoxypyridin-3-yl)benzenesulfonyl]-1,4-dihydropyrimidin-4-one], the pEC50 is 8.00 to 11.00. As to `CCCCc1nc(=O)c(S(=O)(=O)c2ccc(-c3ccc(C(C)(C)O)cc3)cc2)c(O)n1-c1c(OC)cccc1OC` [Example 31, 2-butyl-1-(2,6-dimethoxyphenyl)-6-hydroxy-5-{4-[4-(2-hydroxypropan-2-yl)phenyl]benzene-sulfonyl}-1,4-dihydropyrimidin-4-one], the negative-log EC50 (pEC50) is 8.00 to 11.00. The result for `COc1cccc(OC)c1-n1c(COC(C)C)nc(=O)c(S(=O)(=O)c2ccc(-c3ccc(F)nc3)cc2)c1O` [Example 32, 1-(2,6-dimethoxyphenyl)-5-[4-(6-fluoropyridin-3-yl)benzenesulfonyl]-6-hydroxy-2-[(propan-2-yloxy)methyl]-1,4-dihydropyrimidin-4-one] reads 8.00 to 11.00; that for `COc1cccc(OC)c1-n1c(COC(C)C)nc(=O)c(S(=O)(=O)c2ccc(-c3ccccc3)cc2)c1O` [Example 33, 1-(2,6-dimethoxyphenyl)-6-hydroxy-5-(4-phenylbenzenesulfonyl)-2-[(propan-2-yloxy)methyl]-1,4-dihydropyrimidin-4-one], 8.00 to 11.00. As to `CCCCc1nc(=O)c(S(=O)(=O)c2ccc(-c3ccncc3F)cc2)c(O)n1-c1c(OC)cccc1OC` [Example 34, 2-butyl-1-(2,6-dimethoxyphenyl)-5-[4-(3-fluoropyridin-4-yl)benzenesulfonyl]-6-hydroxy-1,4-dihydropyrimidin-4-one], the negative logarithm of the EC50 (pEC50) was 8.00 to 11.00.

For the compound `CCCCc1nc(=O)c(S(=O)(=O)c2ccc(-c3cc(F)ccc3F)cc2)c(O)n1-c1c(OC)cccc1OC` [Example 35, 2-butyl-5-[4-(2,5-difluorophenyl)benzenesulfonyl]-1-(2,6-dimethoxyphenyl)-6-hydroxy-1,4-dihydropyrimidin-4-one], the pEC50 is 8.00 to 11.00. In the case of `CCCCc1nc(=O)c(S(=O)(=O)c2ccc(-c3ccc(Cl)c(F)c3)cc2)c(O)n1-c1c(OC)cccc1OC` [Example 36, 2-butyl-5-[4-(4-chloro-3-fluorophenyl)benzene-sulfonyl]-1-(2,6-dimethoxyphenyl)-6-hydroxy-1,4-dihydropyrimidin-4-one], the negative-log EC50 (pEC50) was 8.00 to 11.00. With `CCCCc1nc(=O)c(S(=O)(=O)c2ccc(-c3cnc(F)c(Cl)c3)cc2)c(O)n1-c1c(OC)cccc1OC` [Example 37, 2-butyl-5-[4-(5-chloro-6-fluoropyridin-3-yl)benzenesulfonyl]-1-(2,6-dimethoxyphenyl)-6-hydroxy-1,4-dihydropyrimidin-4-one], the pEC50 was 8.00 to 11.00.

`CCCCc1nc(=O)c(S(=O)(=O)c2ccc(-c3ccc(CN(C)C)cc3)cc2)c(O)n1-c1c(OC)cccc1OC` [Example 38, 2-butyl-1-(2,6-dimethoxyphenyl)-5-(4-{4-[(dimethyla,o)methyl]phenyl}benzenesulfonyl)-6-hydroxy-1,4-dihydropyrimidin-4-one]: the pEC50 was 8.00 to 11.00. Take `CCCCc1nc(=O)c(S(=O)(=O)c2ccc(-c3ccc(C(=O)NC4CC4)cc3)cc2)c(O)n1-c1c(OC)cccc1OC` [Example 39, 4-(4-{[2-butyl-1-(2,6-dimethoxyphenyl)-6-hydroxy-4-oxo-1,4-dihydropyrimidin-5-yl]sulfonyl}phenyl)-N-cyclopropylbenzamide]: the pEC50 is 8.00 to 11.00.

Take `CCCCc1nc(=O)c(S(=O)(=O)c2ccc(-c3ccncc3C)cc2)c(O)n1-c1c(OC)cccc1OC` [Example 40, 2-butyl-1-(2,6-dimethoxyphenyl)-6-hydroxy-5-[4-(3-methylpyridin-4-yl)benzenesulfonyl]-1,4-dihydropyrimidin-4-one]: the negative logarithm of the EC50 (pEC50) is 8.00 to 11.00. Consider `CCCCc1nc(=O)c(S(=O)(=O)c2ccc(-c3ccc(C4CC4)nc3)cc2)c(O)n1-c1c(OC)cccc1OC` [Example 41, 2-butyl-5-[4-(6-cyclopropylpyridin-3-yl)benzenesulfonyl]-1-(2,6-dimethoxyphenyl)-6-hydroxy-1,4-dihydropyrimidin-4-one], for which the negative logarithm of the EC50 (pEC50) was 8.00 to 11.00.

For `CCCCc1nc(=O)c(S(=O)(=O)c2ccc(-c3cccc(F)n3)cc2)c(O)n1-c1c(OC)cccc1OC` [Example 42, 2-butyl-1-(2,6-dimethoxyphenyl)-5-[4-(6-fluoropyridin-2-yl)benzenesulfonyl]-6-hydroxy-1,4-dihydropyrimidin-4-one], the pEC50 was 8.00 to 11.00. Regarding `CCCCc1nc(=O)c(S(=O)(=O)c2ccc(-c3ccnc(OC)c3)cc2)c(O)n1-c1c(OC)cccc1OC` [Example 43, 2-butyl-1-(2,6-dimethoxyphenyl)-6-hydroxy-5-[4-(2-methoxypyridin-4-yl)benzenesulfonyl]-1,4-dihydropyrimidin-4-one], the pEC50 was 8.00 to 11.00. Regarding `CCCCc1nc(=O)c(S(=O)(=O)c2ccc(-c3ccc(C(N)=O)cc3)cc2)c(O)n1-c1c(OC)cccc1OC` [Example 44, 4-(4-{[2-butyl-1-(2,6-dimethoxyphenyl)-6-hydroxy-4-oxo-1,4-dihydropyrimidin-5-yl]sulfonyl}phenyl) benzamide], the negative-log EC50 (pEC50) was 8.00 to 11.00. In the case of `CCCCc1nc(=O)c(S(=O)(=O)c2ccc(-c3cccc(OCOC)c3)cc2)c(O)n1-c1c(OC)cccc1OC` [Example 45, 2-butyl-1-(2,6-dimethoxyphenyl)-6-hydroxy-5-{4-[3-(methoxymethoxy)phe-nyl]benzenesulfonyl}-1,4-dihydropyrimidin-4-one], the pEC50 was 8.00 to 11.00.

`CCCCc1nc(=O)c(S(=O)(=O)c2ccc(-c3ccccc3C#N)cc2)c(O)n1-c1c(OC)cccc1OC` [Example 46, 2-(4-{[2-butyl-1-(2,6-dimethoxyphenyl)-6-hydroxy-4-oxo-1,4-dihydropyrimidin-5-yl]sulfonyl}phenyl) benzonitrile]: the negative logarithm of the EC50 (pEC50) was 8.00 to 11.00. Regarding `CCCCc1nc(=O)c(S(=O)(=O)c2ccc(-c3cccc(C#N)c3)cc2)c(O)n1-c1c(OC)cccc1OC` [Example 47, 3-(4-{[2-butyl-1-(2,6-dimethoxyphenyl)-6-hydroxy-4-oxo-1,4-dihydropyrimidin-5-yl]sulfonyl}phenyl) benzonitrile], the negative logarithm of the EC50 (pEC50) was 8.00 to 11.00. With `CCCCc1nc(=O)c(S(=O)(=O)c2ccc(-c3ccc(NC(=O)OC)cc3)cc2)c(O)n1-c1c(OC)cccc1OC` [Example 48, methyl N-[4-(4-{[2-butyl-1-(2,6-dimethoxyphenyl)-6-hydroxy-4-oxo-1,4-dihydropyrimidin-5-yl]sulfonyl}phenyl)phe-nyl]carbamate], the pEC50 is 8.00 to 11.00.

For `CCCCc1nc(=O)c(S(=O)(=O)c2ccc(-c3ccccc3COC)cc2)c(O)n1-c1c(OC)cccc1OC` [Example 49, 2-butyl-1-(2,6-dimethoxyphenyl)-6-hydroxy-5-{4-[2-(methoxymethyl)phenyl]benzenesulfonyl}-1,4-dihydropyrimidin-4-one], the pEC50 is 8.00 to 11.00. `CCCCc1nc(=O)c(S(=O)(=O)c2ccc(-c3cncc(F)c3)cc2)c(O)n1-c1c(OC)cccc1OC` [Example 50, 2-butyl-1-(2,6-dimethoxyphenyl)-5-[4-(5-fluoropyridin-3-yl)benzenesulfonyl]-6-hydroxy-1,4-dihydropyrimidin-4-one]: the negative-log EC50 (pEC50) was 8.00 to 11.00. Regarding `CCCCc1nc(=O)c(S(=O)(=O)c2ccc(-c3ccnc(NC(=O)C4CC4)c3)cc2)c(O)n1-c1c(OC)cccc1OC` [Example 51, N-[4-(4-{[2-butyl-1-(2,6-dimethoxyphenyl)-6-hydroxy-4-oxo-1,4-dihydropyrimidin-5-yl]sulfonyl}phenyl)pyri-din-2-yl]cyclopropane-carboxamide], the negative-log EC50 (pEC50) is 8.00 to 11.00.

`CCCCc1nc(=O)c(S(=O)(=O)c2ccc(-c3cccc4cnccc34)cc2)c(O)n1-c1c(OC)cccc1OC` [Example 52, 2-butyl-1-(2,6-dimethoxyphenyl)-6-hydroxy-5-[4-(isoquinolin-5-yl)benzenesulfonyl]-1,4-dihydropyrimidin-4-one]: the negative-log EC50 (pEC50) is 8.00 to 11.00.

`CCCCc1nc(=O)c(S(=O)(=O)c2ccc(-c3ccc4c(ccn4C)c3)cc2)c(O)n1-c1c(OC)cccc1OC` [Example 53, 2-butyl-1-(2,6-dimethoxyphenyl)-6-hydroxy-5-[4-(1-methyl-1H-indol-5-yl)benzenesulfonyl]-1,4-dihydropyrimidin-4-one]: the pEC50 is 8.00 to 11.00.
